Measurements: patent publication US9884048B2, “ERK inhibitors” (Merck Sharp & Dohme Corp., priority 2014, dated 2018)

molecular target: phosphorylated active hERK2 enzyme (Homo sapiens (Human), UniProt P28482); settings: not given
Sequence (P28482 whole entry): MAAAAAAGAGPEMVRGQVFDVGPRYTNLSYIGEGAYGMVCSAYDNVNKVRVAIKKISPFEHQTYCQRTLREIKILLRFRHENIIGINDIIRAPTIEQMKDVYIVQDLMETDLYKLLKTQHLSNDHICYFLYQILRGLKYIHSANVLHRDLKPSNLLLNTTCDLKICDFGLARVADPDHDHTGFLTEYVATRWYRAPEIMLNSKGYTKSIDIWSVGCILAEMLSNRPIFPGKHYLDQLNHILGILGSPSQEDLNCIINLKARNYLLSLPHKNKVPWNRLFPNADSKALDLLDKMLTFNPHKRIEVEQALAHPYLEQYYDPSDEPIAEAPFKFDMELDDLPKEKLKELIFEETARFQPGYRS

| IC50 | Structure (SMILES) |
| --- | --- |
| 7.34 nM | Cc1cc(-n2ncc3cc(NC(=O)N[C@H]4CCC[C@@H]4c4ccccc4)ncc32)ccn1 (racemic) [Example 168, Racemic trans 1-[1-(2-methylpyridin-4-yl)-1H-pyrazolo[3,4-c]pyridin-5-yl]-3-[(1S,2R) and (1R,2S)-2-phenylcyclopentyl]urea] |

same assay, conditions: read-out: ERK2 IC50; IMAP-FP assay; 0.5 nM hERK2, 30 μM ATP; 10 point titration, 3 μM starting concentration

| IC50 | Structure (SMILES) |
| --- | --- |
| 275 nM | Cc1cc(-n2ncc3cc(NC(=O)N[C@@H]4C[C@H](C)N(C)C4)ncc32)ccn1 [Example 26, 1-[(3R,5S)-1,5-dimethylpyrrolidin-3-yl]-3-[1-(2-methylpyridin-4-yl)-1H-pyrazolo[3,4-c]pyridin-5-yl]urea] |
| 1.01 nM | Cc1cc(-n2ncc3cc(NC(=O)N[C@@H]4CN(C)C[C@H]4c4ccc(C)s4)ncc32)ccn1 [Example 124, 1-[(3S,4R)-1-methyl-4-(5-methylthiophen-2-yl)pyrrolidin-3-yl]-3-[1-(2-methylpyridin-4-yl)-1H-pyrazolo[3,4-c]pyridin-5-yl)urea] |
| 181 nM | Cc1cc(-n2ncc3cc(NC(=O)NC4CC(=O)N(C)C4)ncc32)ccn1 (centres unmarked) [Example 22, 1-(1-methyl-5-oxopyrrolidin-3-yl)-3-[1-(2-methylpyridin-4-yl)-1H-pyrazolo[3,4-c]pyridin-5-yl)urea] |
| 45.3 nM | Cc1cc(-n2ncc3cc(NC(=O)NC4CCN(Cc5cccnc5)C4)ncc32)ccn1 (centres unmarked) [Example 270, 1-[1-(2-methylpyridin-4-yl)-1H-pyrazolo[3,4-c]pyridin-5-yl]-3-[1-(pyridin-3-ylmethyl)-pyrrolidin-3-yl]urea] |
| 42.5 nM | Cc1cc(-n2ncc3cc(NC(=O)N[C@@H](CN)c4ccccc4)ncc32)ccn1 [Example 186, 1-[(1R)-2-amino-1-phenylethyl]-3-[1-(2-methylpyridin-4-yl)-1H-pyrazolo[3,4-c]pyridin-5-yl]urea] |
| 2.64 nM | Cc1cc(-n2ncc3cc(NC(=O)N[C@H]4CN(C(C)C)C[C@@H]4c4ccccc4)ncc32)ccn1 [Example 198, 1-[(3R,4S)-1-(1-methylethyl)-4-phenylpyrrolidin-3-yl]-3-[1-(2-methylpyridin-4-yl)-1H-pyrazolo[3,4-c]pyridin-5-yl]urea] |
| 1580 nM | C[C@@H](NC(=O)Nc1cc2cnn(-c3ccc(F)cc3)c2c(CN(C)C)n1)c1ccccc1 [Example 243, 1-{7-[(dimethylamino)methyl]-1-(4-fluorophenyl)-1H-pyrazolo[3,4-c]pyridin-5-yl}-3-[(1R)-1-phenylethyl]urea] |
| 767 nM | Cc1cc(-n2ncc3cc(NC(=O)N[C@H]4CCN(C)C4)ncc32)ccn1 [Example 21, 1-[1-(2-methylpyridin-4-yl)-1H-pyrazolo[3,4-c]pyridin-5-yl]-3-[(3S)-1-methylpyrrolidin-3-yl)urea] |
| 10.2 nM | Cc1cc(-n2ncc3cc(NC(=O)NC(CCN(C)C)c4ccccn4)ncc32)ccn1 (centres unmarked) [Example 72, 1-[3-(dimethylamino)-1-pyridin-2-ylpropyl]-3-[1-(2-methylpyridin-4-yl)-1H-pyrazolo[3,4-c]pyridin-5-yl]urea] |
| 3.6 nM | Cc1cc(-n2ncc3cc(NC(=O)N[C@H]4CN(C5CCC5)C[C@@H]4c4ccccc4)ncc32)ccn1 [Example 195, 1-[(3R,4S)-1-cyclobutyl-4-phenylpyrrolidin-3-yl]-3-[1-(2-methylpyridin-4-yl)-1H-pyrazolo[3,4-c]pyridin-5-yl]urea] |
| 549 nM | Cc1cncc(-n2ncc3cc(NC(=O)N[C@H](C)c4ccccc4)ncc32)n1 [Example 211, 1-[1-(6-methylpyrazin-2-yl)-1H-pyrazolo[3,4-c]pyridin-5-yl]-3-[(1R)-1-phenylethyl]urea] |
| 24.1 nM | Cc1cc(-n2ncc3cc(NC(=O)N[C@H]4CNC[C@@H]4Oc4ccc(F)cc4)ncc32)ccn1 [Example 284, 1-[(3S,4S)-4-(4-fluorophenoxy)pyrrolidin-3-yl]-3-[1-(2-methylpyridin-4-yl)-1H-pyrazolo[3,4-c]pyridin-5-yl]urea] |
| 3.39 nM | CNC(=O)c1cccc(CNC(=O)Nc2cc3cnn(-c4ccnc(C)c4)c3cn2)c1 [Example 97, N-methyl-3-[({[1-(2-methylpyridin-4-yl)-1H-pyrazolo[3,4-c]pyridin-5-yl]carbamoyl}amino)methyl] benzamide] |
| 2.85 nM | Cc1cc(-n2ncc3cc(NC(=O)N[C@H](C)c4ccc(F)c(Cl)c4)ncc32)ccn1 [Example 219, 1-[(1R)-1-(3-chloro-4-fluorophenyl)ethyl]-3-[1-(2-methylpyridin-4-yl)-1H-pyrazolo[3,4-c]pyridin-5-yl]urea] |
| 2.81 nM | Cc1cc(-n2ncc3cc(NC(=O)N[C@H](C)c4ccccc4)nc(C)c32)ccn1 [Example 251, 1-[7-methyl-1-(2-methylpyridin-4-yl)-1H-pyrazolo[3,4-c]pyridin-5-yl]-3-[(1R)-1-phenylethyl]urea] |
| 27.6 nM | Cc1cc(-n2ncc3cc(NC(=O)NCc4c(C)nn(C)c4C)ncc32)ccn1 [Example 116, 1-[1-(2-methylpyridin-4-yl)-1H-pyrazolo[3,4-c]pyridin-5-yl]-3-[(1,3,5-trimethyl-1H-pyrazol-4-yl)methyl]urea] |
| 516 nM | C[C@@H](NC(=O)Nc1cc2cnn(-c3ccc(F)cc3)c2c(CN)n1)c1ccccc1 [Example 319, 1-[7-(aminomethyl)-1-(4-fluorophenyl)-1H-pyrazolo[3,4-c]pyridin-5-yl]-3-[(1R)-1-phenylethyl]urea] |

| IC50 | Structure (SMILES) |
| --- | --- |
| 41 nM | C[C@@H](NC(=O)Nc1cc2cn[nH]c2c(CO)n1)c1ccccc1 [Example 229, (R)-1-(7-(hydroxymethyl)-1H-pyrazolo[3,4-c]pyridin-5-yl)-3-(1-phenylethyl)urea] |
| 11.4 nM | COCCOCc1nc(NC(=O)N[C@H](C)c2ccccc2)cc2cnn(-c3ccnc(C)c3)c12 [Example 248, 1-{7-[(2-methoxyethoxy)methyl]-1-(2-methylpyridin-4-yl)-1H-pyrazolo[3,4-c]pyridin-5-yl}-3-[(1R)-1-phenylethyl]urea] |
| 60.4 nM | C[C@@H](NC(=O)Nc1cc2cnn(C)c2c(CO)n1)c1ccccc1 [Example 298, (R)-1-(7-(Hydroxymethyl)-1-methyl-1H-pyrazolo[3,4-c]pyridin-5-yl)-3-(1-phenylethyl)urea] |
| 102 nM | Cc1cc(-n2ncc3cc(NC(=O)NCC4CNC4)ncc32)ccn1 [Example 263, 1-(azetidin-3-ylmethyl)-3-(1-(2-methylpyridin-4-yl)-1H-pyrazolo[3,4-c]pyridin-5-yl)urea] |
| 857 nM | COC(=O)[C@@H](NC(=O)Nc1cc2cnn(-c3ccnc(C)c3)c2cn1)c1ccccc1 [Example 137, methyl (2S)-({[1-(2-methylpyridin-4-yl)-1H-pyrazolo[3,4-c]pyridin-5-yl]carbamoyl}amino)(phenyl) ethanoate] |
| 745 nM | COC[C@@H](NC(=O)Nc1cc2cnn(-c3ccnc(C)c3)c2cn1)c1ccccn1 [Example 210, 1-[(1S)-2-methoxy-1-pyridin-2-ylethyl]-3-[1-(2-methylpyridin-4-yl)-1H-pyrazolo[3,4-c]pyridin-5-yl]urea] |
| 200 nM | Cc1cc(-n2ncc3cc(NC(=O)NC4CNC(c5ccccc5)C4)ncc32)ccn1 (centres unmarked) [Example 67, 1-[1-(2-methylpyridin-4-yl)-1H-pyrazolo[3,4-c]pyridin-5-yl]-3-(5-phenylpyrrolidin-3-yl)urea] |
| 5.45 nM | C[C@@H](NC(=O)Nc1cc2cnn(-c3cnn(C)c3)c2cn1)c1cccc(Cl)c1 [Example 217, 1-[(1R)-1-(3-chlorophenyl)ethyl]-3-[1-(1-methyl-1H-pyrazol-4-yl)-1H-pyrazolo[3,4-c]pyridin-5-yl]urea] |
| 43.2 nM | Cc1cc(-n2ncc3cc(NC(=O)NCC4(F)CNC4)ncc32)ccn1 [Example 287, 1-[(3-fluoroazetidin-3-yl)methyl]-3-[1-(2-methylpyridin-4-yl)-1H-pyrazolo[3,4-c]pyridin-5-yl]urea] |
| 2.28 nM | Cc1cc(-n2ncc3cc(NC(=O)N[C@H](C)c4ccc(F)cc4)ncc32)ccn1 [Example 223, (R)-1-(1-(4-fluorophenyl)ethyl)-3-(1-(2-methylpyridin-4-yl)-1H-pyrazolo[3,4-c]pyridin-5-yl)urea] |
| 7.78 nM | Cc1cc(-n2ncc3cc(NC(=O)NC(C)c4ccc(S(C)(=O)=O)cc4)ncc32)ccn1 (centres unmarked) [Example 66, 1-[1-(2-methylpyridin-4-yl)-1H-pyrazolo[3,4-c]pyridin-5-yl]-3-{1-[4-(methylsulfonyl)phenyl]ethyl}urea] |
| 0.68 nM | COC[C@@H](NC(=O)Nc1cc2cnn(-c3ccnc(C)c3)c2cn1)c1ccccc1 [Example 90, 1-[(1S)-2-methoxy-1-phenylethyl]-3-[1-(2-methylpyridin-4-yl)-1H-pyrazolo[3,4-c]pyridin-5-yl)urea] |
| 22.2 nM | Cc1cc(-n2ncc3cc(NC(=O)NC4CCCN(Cc5nccs5)C4)ncc32)ccn1 (centres unmarked) [Example 267, 1-[1-(2-methylpyridin-4-yl)-1H-pyrazolo[3,4-c]pyridin-5-yl]-3-[1-(1,3-thiazol-2-ylmethyl)piperidin-3-yl]urea] |
| 253 nM | CO[C@@H]1CN(Cc2cccnc2)C[C@H]1NC(=O)Nc1cc2cnn(-c3ccnc(C)c3)c2cn1 [Example 262, 1-((3R,4R)-4-methoxy-1-(pyridin-3-ylmethyl)pyrrolidin-3-yl)-3-(1-(2-methylpyridin-4-yl)-1H-pyrazolo[3,4-c]pyridin-5-yl)urea] |
| 0.689 nM | Cc1cc(-n2ncc3cc(NC(=O)N[C@@H]4CN(C)C5(COC5)[C@H]4c4ccccc4)ncc32)ccn1 [Example 201, 1-[(7S,8S)-5-methyl-8-phenyl-2-oxa-5-azaspiro[3.4]oct-7-yl]-3-[1-(2-methylpyridin-4-yl)-1H-pyrazolo[3,4-c]pyridin-5-yl]urea] |
| 208 nM | Cc1ccc(-n2ncc3cc(NC(=O)N[C@H](C)c4ccccc4)ncc32)nn1 [Example 213, 1-[1-(6-methylpyridazin-3-yl)-1H-pyrazolo[3,4-c]pyridin-5-yl]-3-[(1R)-1-phenylethyl]urea] |
| 78 nM | COCCCn1ncc2cc(NC(=O)N[C@H](C)c3ccccc3)nc(CO)c21 [Example 301, 1-[7-(hydroxymethyl)-1-(3-methoxypropyl)-1H-pyrazolo[3,4-c]pyridin-5-yl]-3-[(1R)-1-phenylethyl]urea] |
